# From patent US7914478B2, “Intrapelvic perfusion therapy with cancer therapeutic agent and apparatus for intrapelvic perfusion with cancer therapeutic agent” (priority 2002, dated 2011)
# Design: species or system patients
# Settings: human, in vivo
# Method: The intrapelvic perfusion therapy with cancer therapeutic agent of the present invention was carried out as explained below.
# The perfusion was continued 30 minutes with keeping the difference between injection and aspiration flow rate was kept 20-25 [ml/min]. After performing this intrapelvic perfusion therapy, the blood of the intrapelvic circulation was dialyzed for 30 min.
compound,measurement,value
N.N.[Cl][Pt][Cl] [Cisplatin],percentage of drug leading from pelvic to systemic compartment during drug infusion,about 20%
